Experimental data taken from US10323022B2, “Pyrrolidinyl urea, pyrrolidinyl thiourea and pyrrolidinyl guanidine compounds as TrkA kinase inhibitors” (Array BioPharma Inc., priority 2011, dated 2019).

Biological target: TrkA (Homo sapiens (Human), UniProt P04629)
Assay: TrkA Omnia Assay
Assay type: biochemical
Conditions: averaged IC50; 20 nM enzyme, 500 μM ATP, 10 μM peptide substrate
Outline: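 Recombinant TrkA (20 nM) preincubated 10 min at ambient temperature with compound, then Omnia Tyr Peptide #4 (10 μM) and ATP (500 μM) added in 25 mM MOPS pH 7.5, 5 mM MgCl2, 0.005% Triton X-100. Fluorescence (ex 360/em 485 nm) followed continuously for 70 min; IC50 from initial rates by 4- or 5-parameter logistic fit.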

Sequence of TrkA (P04629 33-796): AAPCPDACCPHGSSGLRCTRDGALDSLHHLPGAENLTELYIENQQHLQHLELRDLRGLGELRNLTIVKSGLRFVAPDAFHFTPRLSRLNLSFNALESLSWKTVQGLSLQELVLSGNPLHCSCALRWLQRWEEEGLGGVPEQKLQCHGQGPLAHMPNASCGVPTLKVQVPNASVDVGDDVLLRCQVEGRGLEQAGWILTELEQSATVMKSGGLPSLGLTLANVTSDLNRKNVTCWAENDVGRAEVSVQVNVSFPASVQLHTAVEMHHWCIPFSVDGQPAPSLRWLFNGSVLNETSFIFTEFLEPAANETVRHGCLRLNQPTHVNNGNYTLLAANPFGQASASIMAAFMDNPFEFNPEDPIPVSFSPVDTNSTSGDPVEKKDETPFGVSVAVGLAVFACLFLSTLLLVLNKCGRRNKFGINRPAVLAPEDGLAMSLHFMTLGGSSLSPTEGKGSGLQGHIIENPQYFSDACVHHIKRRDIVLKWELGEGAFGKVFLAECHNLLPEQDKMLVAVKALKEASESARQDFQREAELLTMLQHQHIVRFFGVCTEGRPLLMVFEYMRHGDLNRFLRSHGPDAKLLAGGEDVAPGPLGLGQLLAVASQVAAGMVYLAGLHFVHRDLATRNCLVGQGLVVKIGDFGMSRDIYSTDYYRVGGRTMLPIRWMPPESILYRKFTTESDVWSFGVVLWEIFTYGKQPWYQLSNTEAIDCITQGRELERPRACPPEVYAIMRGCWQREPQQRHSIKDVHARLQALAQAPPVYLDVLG

| IC50 | Compound |
| --- | --- |
| < 0.1 µM | COCCN1C[C@@H](NC(=O)Nc2c(C)c(C(F)(F)CO)nn2-c2ccccc2)[C@H](c2cc(F)cc(F)c2)C1 [Example 283, 1-(3-(1,1-difluoro-2-hydroxyethyl)-4-methyl-1-phenyl-1H-pyrazol-5-yl)-3-((3S,4R)-4-(3,5-difluorophenyl)-1-(2-methoxyethyl)pyrrolidin-3-yl)urea] |
| < 0.1 µM | COCCN1C[C@@H](NC(=O)Nc2c(C)c(C(F)(F)CO)nn2-c2ccccc2)[C@H](c2ccc(F)cc2)C1 [Example 284, 1-(3-(1,1-difluoro-2-hydroxyethyl)-4-methyl-1-phenyl-1H-pyrazol-5-yl)-3-((3S,4R)-4-(4-fluorophenyl)-1-(2-methoxyethyl)pyrrolidin-3-yl)urea] |
| < 0.1 µM | COCCN1C[C@@H](NC(=O)Nc2cc(C(F)(F)CO)nn2-c2ccccc2)[C@H](c2ccc(F)c(F)c2)C1 [Example 285, 1-(3-(1,1-difluoro-2-hydroxyethyl)-1-phenyl-1H-pyrazol-5-yl)-3-((3S,4R)-4-(3,4-difluorophenyl)-1-(2-methoxyethyl)pyrrolidin-3-yl)urea] |
| < 0.1 µM | COCCN1C[C@@H](NC(=O)Nc2c(C)c(CCO)nn2-c2ccccc2)[C@H](c2cc(F)cc(F)c2)C1 [Example 286, 1-((3S,4R)-4-(3,5-difluorophenyl)-1-(2-methoxyethyl)pyrrolidin-3-yl)-3-(3-(2-hydroxyethyl)-4-methyl-1-phenyl-1H-pyrazol-5-yl)urea] |
| < 0.1 µM | COCCN1C[C@@H](NC(=O)Nc2c(C)c(CCO)nn2-c2ccccc2)[C@H](c2ccc(F)cc2)C1 [Example 287, 1-((3S,4R)-4-(4-fluorophenyl)-1-(2-methoxyethyl)pyrrolidin-3-yl)-3-(3-(2-hydroxyethyl)-4-methyl-1-phenyl-1H-pyrazol-5-yl)urea] |
| < 0.1 µM | COCCN1C[C@@H](NC(=O)Nc2c(C)c(CC(C)(C)O)nn2-c2ccccc2)[C@H](c2ccc(F)c(F)c2)C1 [Example 288, 1-((3S,4R)-4-(3,4-difluorophenyl)-1-(2-methoxyethyl)pyrrolidin-3-yl)-3-(3-(2-hydroxy-2-methylpropyl)-4-methyl-1-phenyl-1H-pyrazol-5-yl)urea] |
| < 0.1 µM | COCCN1C[C@@H](NC(=O)Nc2c(C)c(C[C@H](C)O)nn2-c2ccccc2)[C@H](c2ccc(F)c(F)c2)C1 [Example 289, 1-((3S,4R)-4-(3,4-difluorophenyl)-1-(2-methoxyethyl)pyrrolidin-3-yl)-3-(3-((S)-2-hydroxypropyl)-4-methyl-1-phenyl-1H-pyrazol-5-yl)urea] |
| < 0.1 µM | COCCN1C[C@@H](NC(=O)Nc2c(C)c(C[C@@H](C)O)nn2-c2ccccc2)[C@H](c2ccc(F)c(F)c2)C1 [Example 290, 1-((3S,4R)-4-(3,4-difluorophenyl)-1-(2-methoxyethyl)pyrrolidin-3-yl)-3-(3-((R)-2-hydroxypropyl)-4-methyl-1-phenyl-1H-pyrazol-5-yl)urea] |
| < 0.1 µM | CCOC(=O)c1nn(-c2ccccc2)c(NC(=O)N[C@@H]2CN(CCOC)C[C@H]2c2ccc(F)c(F)c2)c1C [Example 291, ethyl 5-(3-((3S,4R)-4-(3,4-difluorophenyl)-1-(2-methoxyethyl)pyrrolidin-3-yl)ureido)-4-methyl-1-phenyl-1H-pyrazole-3-carboxylate] |
| < 0.1 µM | CNC(=O)c1nn(-c2ccccc2)c(NC(=O)N[C@@H]2CN(CCOC)C[C@H]2c2ccc(F)cc2)c1C [Example 292, 5-(3-((3S,4R)-4-(4-fluorophenyl)-1-(2-methoxyethyl)pyrrolidin-3-yl)ureido)-N,4-dimethyl-1-phenyl-1H-pyrazole-3-carboxamide] |
| < 0.1 µM | COCCN1C[C@@H](NC(=O)Nc2c(C)c(-c3nnc(C)o3)nn2-c2ccccc2)[C@H](c2ccc(F)c(F)c2)C1 [Example 297, 1-((3S,4R)-4-(3,4-difluorophenyl)-1-(2-methoxyethyl)pyrrolidin-3-yl)-3-(4-methyl-3-(5-methyl-1,3,4-oxadiazol-2-yl)-1-phenyl-1H-pyrazol-5-yl)urea] |
| < 0.1 µM | COCCN1C[C@@H](NC(=O)Nc2c(C)c(-c3nc(C)no3)nn2-c2ccccc2)[C@H](c2ccc(F)c(F)c2)C1 [Example 298, 1-((3S,4R)-4-(3,4-difluorophenyl)-1-(2-methoxyethyl)pyrrolidin-3-yl)-3-(4-methyl-3-(3-methyl-1,2,4-oxadiazol-5-yl)-1-phenyl-1H-pyrazol-5-yl)urea] |
| < 0.1 µM | COCCN1C[C@@H](NC(=O)Nc2c(C)c(-c3cc(C)n(C)n3)nn2-c2ccccc2)[C@H](c2ccc(F)c(F)c2)C1 [Example 305, 1-((3S,4R)-4-(3,4-difluorophenyl)-1-(2-methoxyethyl)pyrrolidin-3-yl)-3-(1′,4,5′-trimethyl-1-phenyl-1H,1′H-[3,3′-bipyrazol]-5-yl)urea] |
| < 0.1 µM | COCCN1C[C@@H](NC(=O)Nc2c(C)c(-c3cc(C)n(C)n3)nn2-c2ccccc2)[C@H](c2cc(F)cc(F)c2)C1 [Example 306, 1-((3S,4R)-4-(3,5-difluorophenyl)-1-(2-methoxyethyl)pyrrolidin-3-yl)-3-(1′,4,5′-trimethyl-1-phenyl-1H,1′H-[3,3′-bipyrazol]-5-yl)urea] |
| < 0.1 µM | COCCN1C[C@@H](NC(=O)Nc2c(C)c(-c3cc(C)n(C)n3)nn2-c2ccccc2)[C@H](c2ccc(F)cc2)C1 [Example 307, 1-((3S,4R)-4-(4-fluorophenyl)-1-(2-methoxyethyl)pyrrolidin-3-yl)-3-(1′,4,5′-trimethyl-1-phenyl-1H,1′H-[3,3′-bipyrazol]-5-yl)urea] |
| < 0.1 µM | COCCN1C[C@@H](NC(=O)Nc2c(C)c(-c3cc(C)nn3C)nn2-c2ccccc2)[C@H](c2ccc(F)c(F)c2)C1 [Example 308, 1-((3S,4R)-4-(3,4-difluorophenyl)-1-(2-methoxyethyl)pyrrolidin-3-yl)-3-(2′,4,5′-trimethyl-1-phenyl-1H,2′H-[3,3′-bipyrazol]-5-yl)urea] |
| < 0.1 µM | COCCN1C[C@@H](NC(=O)Nc2c(C)c(-c3cnn(C)c3)nn2-c2ccccc2)[C@H](c2ccc(F)cc2F)C1 [Example 324, 1-((3S,4R)-4-(2,4-difluorophenyl)-1-(2-methoxyethyl)pyrrolidin-3-yl)-3-(1′,4-dimethyl-1-phenyl-1H,1′H-[3,4′-bipyrazol]-5-yl)urea] |

More lines, now with the values behind:

| Compound | IC50 |
| --- | --- |
| COCCN1C[C@@H](NC(=O)Nc2c(C)c(-c3nc(C(F)(F)F)no3)nn2-c2ccccc2)[C@H](c2ccc(F)c(F)c2)C1 [Example 299, 1-((3S,4R)-4-(3,4-difluorophenyl)-1-(2-methoxyethyl)pyrrolidin-3-yl)-3-(4-methyl-1-phenyl-3-(3-(trifluoromethyl)-1,2,4-oxadiazol-5-yl)-1H-pyrazol-5-yl)urea] | < 0.1 µM |
| COCCN1C[C@@H](NC(=O)Nc2c(C)c(-c3nc(C(F)(F)F)no3)nn2-c2ccccc2)[C@H](c2ccc(F)cc2)C1 [Example 300, 1-((3S,4R)-4-(4-fluorophenyl)-1-(2-methoxyethyl)pyrrolidin-3-yl)-3-(4-methyl-1-phenyl-3-(3-(trifluoromethyl)-1,2,4-oxadiazol-5-yl)-1H-pyrazol-5-yl)urea] | < 0.1 µM |
| COCCN1C[C@@H](NC(=O)Nc2c(C3CC3)c(-c3cnn(C)c3)nn2-c2ccccc2)[C@H](c2ccc(F)c(F)c2)C1 [Example 309, 1-(4-cyclopropyl-1′-methyl-1-phenyl-1H,1′H-[3,4′-bipyrazol]-5-yl)-3-((3S,4R)-4-(3,4-difluorophenyl)-1-(2-methoxyethyl)pyrrolidin-3-yl)urea] | < 0.1 µM |
| COCCN1C[C@@H](NC(=O)Nc2c(C(C)C)c(-c3cnn(C)c3)nn2-c2ccccc2)[C@H](c2ccc(F)c(F)c2)C1 [Example 310, 1-((3S,4R)-4-(3,4-difluorophenyl)-1-(2-methoxyethyl)pyrrolidin-3-yl)-3-(4-isopropyl-1′-methyl-1-phenyl-1H,1′H-[3,4′-bipyrazol]-5-yl)urea] | 0.1 to 1 µM |
| CCc1c(-c2cnn(C)c2)nn(-c2ccccc2)c1NC(=O)N[C@@H]1CN(CCOC)C[C@H]1c1ccc(F)c(F)c1 [Example 311, 1-((3S,4R)-4-(3,4-difluorophenyl)-1-(2-methoxyethyl)pyrrolidin-3-yl)-3-(4-ethyl-1′-methyl-1-phenyl-1H,1′H-[3,4′-bipyrazol]-5-yl)urea] | < 0.1 µM |
| COCCN1C[C@@H](NC(=O)Nc2c(C)c(-c3cnn(C)c3)nn2-c2ccc(F)cc2)[C@H](c2ccc(F)c(F)c2)C1 [Example 312, 1-((3S,4R)-4-(3,4-difluorophenyl)-1-(2-methoxyethyl)pyrrolidin-3-yl)-3-(1-(4-fluorophenyl)-1′,4-dimethyl-1H,1′H-[3,4′-bipyrazol]-5-yl)urea] | < 0.1 µM |
| COCCN1C[C@@H](NC(=O)Nc2c(C)c(-c3cnn(C)c3)nn2-c2cccc(F)c2)[C@H](c2ccc(F)c(F)c2)C1 [Example 313, 1-((3S,4R)-4-(3,4-difluorophenyl)-1-(2-methoxyethyl)pyrrolidin-3-yl)-3-(1-(3-fluorophenyl)-1′,4-dimethyl-1H,1′H-[3,4′-bipyrazol]-5-yl)urea] | < 0.1 µM |
| COCCN1C[C@@H](NC(=O)Nc2c(C)c(-c3cnn(C)c3)nn2-c2ccccc2F)[C@H](c2ccc(F)c(F)c2)C1 [Example 314, 1-((3S,4R)-4-(3,4-difluorophenyl)-1-(2-methoxyethyl)pyrrolidin-3-yl)-3-(1-(2-fluorophenyl)-1′,4-dimethyl-1H,1′H-[3,4′-bipyrazol]-5-yl)urea] | < 0.1 µM |
| COCCN1C[C@@H](NC(=O)Nc2c(C)c(-c3cnn(C)c3)nn2-c2ccc(F)cc2)[C@H](c2ccc(F)cc2)C1 [Example 318, 1-((3S,4R)-4-(4-fluorophenyl)-1-(2-methoxyethyl)pyrrolidin-3-yl)-3-(1-(4-fluorophenyl)-1′,4-dimethyl-1H,1′H-[3,4′-bipyrazol]-5-yl)urea] | 0.1 to 1 µM |
| COCCN1C[C@@H](NC(=O)Nc2c(C)c(-c3cnn(C)c3)nn2-c2ccc(F)c(Cl)c2)[C@H](c2ccc(F)cc2)C1 [Example 322] | < 0.1 µM |
| COCCN1C[C@@H](NC(=O)Nc2c(C)c(-c3cnn(C)c3)nn2-c2cccc(Cl)c2F)[C@H](c2ccc(F)cc2)C1 [Example 323] | < 0.1 µM |
